Measured values published in patent US7557085B2, “Metabolic-based methods for modulating gene expression” (Wisconsin Alumni Research Foundation, priority 2005, dated 2009).
Like-named read-outs stand apart in the source and are kept apart here. One block for each molecule: values may come before it.

Legend:
[1] = system: NRSF mediated repression; assay: gal4-NRSF luciferase reporter (G5-TATA-Luc) in JTC-19 cells; type: cell-based, rat
[2] = target: T1, CtBP2 binding to NRSF (Mus musculus, UniProt P56546); assay: immunoprecipitation of MYC-NRSF with KT3-CtBP2 from HEK cells at NADH concentrations
T1 construct: expressed in transfected cells; host or cells: HEK-293 cells
T1 sequence (P56546 whole entry): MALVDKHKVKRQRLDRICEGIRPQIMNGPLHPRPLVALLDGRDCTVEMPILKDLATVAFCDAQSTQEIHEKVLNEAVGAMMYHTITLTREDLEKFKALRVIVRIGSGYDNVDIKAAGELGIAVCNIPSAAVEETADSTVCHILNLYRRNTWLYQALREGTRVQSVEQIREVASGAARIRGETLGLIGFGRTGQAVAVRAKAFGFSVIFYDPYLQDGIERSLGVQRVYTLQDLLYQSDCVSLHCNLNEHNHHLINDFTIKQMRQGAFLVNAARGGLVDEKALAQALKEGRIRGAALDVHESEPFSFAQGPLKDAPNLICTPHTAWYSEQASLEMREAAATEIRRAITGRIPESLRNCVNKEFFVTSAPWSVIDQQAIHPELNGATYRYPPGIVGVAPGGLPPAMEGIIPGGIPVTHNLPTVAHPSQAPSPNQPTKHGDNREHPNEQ
Method: Protein was harvested, incubated with the indicated concentrations of NADH and immunoprecipitated with anti-KT3 antibody or anti-Jun antibody as sham. Immune complexes were subjected to Western blot analysis with anti-MYC antibody.
As NADH concentrations regulate CtBP2 binding to a number of transcription factors (see Zhang et al., 2002, Id.; Mirnezami et al., 2003, Id.; Kim et al., 2005, Nat Struct Mol Biol 12: 423-8) and the non-NADH binding G189A CtBP mutant abolishes metabolic sensitivity of NRSF function, CtBP2 binding to NRSF was tested as a function of NADH concentration. In these experiments, HEK cells were co-transfected with plasmids expressing MYC-tagged NRSF or KT3-tagged CtBP2 as described above. Protein was harvested, incubated with NADH at concentrations from 0-1000 nM and immunoprecipitated with anti-KT3 antibody or anti-Jun antibody as sham. Immune complexes were subjected to Western blot analysis using an anti-MYC antibody conjugated with horseradish peroxidase as described above and in Roopra et al. (2004, Id.). […] Half maximal binding occurred at a physiologically relevant concentrations of ˜70 nM (data not shown).

[3] = target: T2, CtBP2 binding to NRSF (Homo sapiens, UniProt P56545); assay: binding of recombinant 6x-HIS-CtBP2 to immunopurified MYC-tagged NRSF with NADH; details: recombinant CtBP2 pre-incubated with NADH
T2 construct: made in house
Method: Immunoprecipitation experiments were performed to examine CtBP2/NRSF binding and the effect of increasing NADH concentration on such binding. In these experiments, soluble recombinant 6×-HIS-tagged CtBP2 (produced using the Qiagen Expression System, Qiagen, Valencia, Calif., according to the manufacturer's instructions) was pre-incubated with indicated concentrations of NADH and then added to immunopurified, antibody and bead bound MYC-tagged NRSF protein (Roopra et al., 2000, Id.) while maintaining the appropriate NADH concentration. The resulting complexes were harvested, washed and subjected to Western blot analysis with an antibody to the 6×-HIS tag on CtBP2 (Qiagen). CtBP2 binding to NRSF is abrogated in the presence of NADH, showing that the NRSF-CtBP2 interaction is sensitive to NADH concentration.

SMILES: [Cl-].[Cl-].[Co+2] [CoCl2, reference compound]
- repression of luciferase reporter gene expression by NRSF (fold repression gal4 DBD/gal4-NRSF) [1]: decreased repression

- IC50 ([2]; HEK cell protein incubated with NADH 0-1000 nM, data not shown, read-out: NADH concentration of half maximal binding of CtBP to NRSF): ~70 nM
- effect on binding of CtBP to NRSF ([2]; increasing concentrations of NADH, 0-1000 nM, dose dependent): disrupted binding
- CtBP2 binding to NRSF [3]: abrogated
SMILES: NC(=O)C1=CN([C@@H]2O[C@H](COP(=O)(O)OP(=O)(O)OC[C@H]3O[C@@H](n4cnc5c(N)ncnc54)[C@H](O)[C@@H]3O)[C@@H](O)[C@H]2O)C=CC1 [NADH]

SMILES: O=C(O)CC(O)(CC(=O)O)C(=O)O [citrate, reference compound]
- repression of luciferase reporter gene expression by NRSF (fold repression gal4 DBD/gal4-NRSF) ([1]; JTC-19 cells, 16 hrs): increased repression
